Results published in patent publication US9233989B2, “Sila analogs of oxazolidinone derivatives and synthesis thereof” (Council of Scientific & Industrial Research, priority 2011, dated 2016).
Values after ≈ are worked out from the molar mass of the structure shown.

How the values were obtained:
[1] = tested on: S.aureus ATCC 13709 Smith; assay: MIC by microbroth dilution method; type: cell-based
[2] = tested on: S.aureus ATCC 29213; assay: MIC by microbroth dilution method; type: cell-based
[3] = tested on: MRSA ATCC 43300; assay: MIC by microbroth dilution method; type: cell-based, S. aureus
[4] = tested on: MRSA 562; assay: MIC by microbroth dilution method; type: cell-based, S. aureus
[5] = tested on: S.aureus2 (PVL + ve); type: cell-based, S. aureus
[6] = tested on: S.aureus ATCC Newman 25904; assay: MIC by microbroth dilution method; type: cell-based
[7] = tested on: MRSA ATCC BAA 39; assay: MIC by microbroth dilution method; type: cell-based, S. aureus
[8] = tested on: S.aureus DB00026; assay: MIC by microbroth dilution method; type: cell-based
[9] = tested on: MRSA 252 BAA 1720; assay: MIC by microbroth dilution method; type: cell-based, S. aureus
[10] = tested on: S.epidermidis ATCC 14990; assay: MIC by microbroth dilution method; type: cell-based
[11] = tested on: MRSE ATCC 35984; assay: MIC by microbroth dilution method; type: cell-based, S. epidermidis
[12] = tested on: E.faecalis ATCC 29212; assay: MIC by microbroth dilution method; type: cell-based
[13] = tested on: E.faecalis ATCC 51299(VRE&HLAR); assay: MIC by microbroth dilution method; type: cell-based
[14] = tested on: E.faecalis ATCC 19433; assay: MIC by microbroth dilution method; type: cell-based
[15] = tested on: E.faecium ATCC 19434; assay: MIC by microbroth dilution method; type: cell-based
[16] = tested on: E.faecium ATCC 49224; assay: MIC by microbroth dilution method; type: cell-based
[17] = tested on: E.faecium ATCC 35667; assay: MIC by microbroth dilution method; type: cell-based
[18] = tested on: E.coli 7632; assay: MIC by microbroth dilution method; type: cell-based
[19] = tested on: S.aureus ATCC 49775 PVL + ve; type: cell-based
[20] = tested on: S.aureus ATCC 700699 Mu50; assay: MIC by microbroth dilution method; type: cell-based
[21] = tested on: MRSA 0-2657; assay: MIC by microbroth dilution method; type: cell-based, S. aureus
[22] = tested on: MRSA DB 00026; assay: MIC by microbroth dilution method; type: cell-based, S. aureus
[23] = tested on: S.aureus 13709 LNZ mutant; type: cell-based
[24] = tested on: S.epidermidis ATCC 12228; assay: MIC by microbroth dilution method; type: cell-based
[25] = tested on: MRSE ATCC 35983; assay: MIC by microbroth dilution method; type: cell-based, S. epidermidis
[26] = tested on: S.epidermis St 358; assay: MIC by microbroth dilution method; type: cell-based, S. epidermidis
[27] = tested on: E.faecalis SP 346 VRE; assay: MIC by microbroth dilution method; type: cell-based
[28] = tested on: E.faecium 6A VRE; assay: MIC by microbroth dilution method; type: cell-based
[29] = tested on: E.faecium 134 VRE; assay: MIC by microbroth dilution method; type: cell-based
[30] = tested on: E.faecium 06076 VRE; assay: MIC by microbroth dilution method; type: cell-based
[31] = tested on: E.faecium ATCC 3567; assay: MIC by microbroth dilution method; type: cell-based
[32] = tested on: Mycobacterium tuberculosis H37Rv; assay: Anti-TB activity, colorimetric resazurin microtiter assay; type: cell-based; conditions: for anti-tubercular activity (in words): Mycobacterium tuberculosis H37Rv; for MIC: Mycobacterium tuberculosis, H37RV, read-out: MIC, Minimum Inhibitory Concentration (90%)

Row | Structure (SMILES) | MIC [1] [µg/mL] | MIC [2] [µg/mL] | MIC [3] [µg/mL] | MIC [4] [µg/mL] | MIC [5] [µg/mL] | MIC [6] [µg/mL] | MIC [7] [µg/mL] | MIC [8] [µg/mL] | MIC [9] [µg/mL] | MIC [10] [µg/mL] | MIC [11] [µg/mL] | MIC [12] [µg/mL] | MIC [13] [µg/mL] | MIC [14] [µg/mL] | MIC [15] [µg/mL] | MIC [16] [µg/mL] | MIC [17] [µg/mL] | MIC [18] [µg/mL] | MIC [19] [µg/mL] | MIC [20] [µg/mL] | other results
1 | CC(=O)NC[C@H]1CN(c2ccc(N3CC[Si](C)(C)CC3)c(F)c2)C(=O)O1 [NDS-10024, (S)—N-((3-(4-(4,4-dimethyl-1,4-azasilinan-1-yl)-3-fluorophenyl)-2-oxooxazolidin-5-yl)methyl)acetamide] | 16 (≈ 42.2 µM) | 16 (≈ 42.2 µM) | 16 (≈ 42.2 µM) | 16 (≈ 42.2 µM) | 16 (≈ 42.2 µM) | 16 (≈ 42.2 µM) | 16 (≈ 42.2 µM) | 16 (≈ 42.2 µM) | 16 (≈ 42.2 µM) | 8 (≈ 21.1 µM) | 8 (≈ 21.1 µM) | 16 (≈ 42.2 µM) | 16 (≈ 42.2 µM) | 16 (≈ 42.2 µM) | 16 (≈ 42.2 µM) | 8 (≈ 21.1 µM) | 8 (≈ 21.1 µM) | > 32 | 16 (≈ 42.2 µM) | 8 (≈ 21.1 µM) | MIC [21]: 8 µg/mL (≈ 21.1 µM); MIC [22]: 16 µg/mL (≈ 42.2 µM); MIC [23]: > 16 µg/mL; MIC [24]: 8 µg/mL (≈ 21.1 µM); MIC [25]: 8 µg/mL (≈ 21.1 µM); MIC [26]: 8 µg/mL (≈ 21.1 µM); MIC [27]: 16 µg/mL (≈ 42.2 µM); MIC [28]: 16 µg/mL (≈ 42.2 µM); MIC [29]: 16 µg/mL (≈ 42.2 µM); MIC [30]: 16 µg/mL (≈ 42.2 µM); MIC [31]: 16 µg/mL (≈ 42.2 µM); anti-tubercular activity (in words) [32]: good anti-tubercular activity; MIC [32]: 6.25 µg/mL (≈ 16.5 µM)
2 | COC(=S)NC[C@H]1CN(c2ccc(N3CC[Si](C)(C)CC3)c(F)c2)C(=O)O1 [NDS-10062, (S)—O-methyl((3-(4-(4,4-dimethyl-1,4-azasilinan-1-yl)-3-fluorophenyl)-2-oxooxazolidin-5-yl)methyl)carbamothioate] | 4 (≈ 9.72 µM) | 4 (≈ 9.72 µM) | 4 (≈ 9.72 µM) | 4 (≈ 9.72 µM) | 4 (≈ 9.72 µM) | 4 (≈ 9.72 µM) | 4 (≈ 9.72 µM) | 4 (≈ 9.72 µM) | 8 (≈ 19.4 µM) | 4 (≈ 9.72 µM) | 2 (≈ 4.86 µM) | 1 (≈ 2.43 µM) | 4 (≈ 9.72 µM) | 2 (≈ 4.86 µM) | 8 (≈ 19.4 µM) | 4 (≈ 9.72 µM) | 4 (≈ 9.72 µM) | 2 (≈ 4.86 µM) | 4 (≈ 9.72 µM) | 8 (≈ 19.4 µM) | MIC [21]: 4 µg/mL (≈ 9.72 µM); MIC [22]: 4 µg/mL (≈ 9.72 µM); MIC [23]: 4 µg/mL (≈ 9.72 µM); MIC [24]: > 32 µg/mL; MIC [25]: 4 µg/mL (≈ 9.72 µM); MIC [26]: 4 µg/mL (≈ 9.72 µM); MIC [27]: 4 µg/mL (≈ 9.72 µM); MIC [28]: 8 µg/mL (≈ 19.4 µM); MIC [29]: 4 µg/mL (≈ 9.72 µM); MIC [30]: 4 µg/mL (≈ 9.72 µM); MIC [31]: 4 µg/mL (≈ 9.72 µM); MIC [32]: 50 µg/mL (≈ 121 µM)
3 | CC(=O)NCC1CN(c2ccc(N3CC[Si](C)(C)CC3)c(F)c2)C(=O)O1 (stereo not drawn) [NDS-10026, N-((3-(4-(4,4-dimethyl-1,4-azasilinan-1-yl)-3-fluorophenyl)-2-oxooxazolidin-5-yl)methy)acetamide] | > 16 | 16 (≈ 42.2 µM) | 32 (≈ 84.3 µM) | 16 (≈ 42.2 µM) | 32 (≈ 84.3 µM) | 32 (≈ 84.3 µM) | 16 (≈ 42.2 µM) | 32 (≈ 84.3 µM) | 32 (≈ 84.3 µM) | 16 (≈ 42.2 µM) | 16 (≈ 42.2 µM) | > 16 | 16 (≈ 42.2 µM) | > 16 | > 16 | 8 (≈ 21.1 µM) | 8 (≈ 21.1 µM) | > 32 | > 16 | 16 (≈ 42.2 µM) | MIC [21]: 16 µg/mL (≈ 42.2 µM); MIC [22]: > 16 µg/mL; MIC [23]: > 16 µg/mL; MIC [24]: 16 µg/mL (≈ 42.2 µM); MIC [25]: 16 µg/mL (≈ 42.2 µM); MIC [26]: > 16 µg/mL; MIC [27]: > 16 µg/mL; MIC [28]: 16 µg/mL (≈ 42.2 µM); MIC [29]: 16 µg/mL (≈ 42.2 µM); MIC [30]: > 16 µg/mL; MIC [31]: > 16 µg/mL; MIC, Minimum Inhibitory Concentration (90%) ([32]; inhibition of Mycobacterium tuberculosis H37Rv growth, 7H9-OADC media, 37° C., visual readout): 50 µg/mL (≈ 132 µM)
4 | C[Si]1(C)CCN(c2c(F)cc(N3C[C@H](CN)OC3=O)cc2F)CC1 [NDS-10054, (S)-5-(aminomethyl)-3-(4-(4,4-dimethyl-1,4-azasilinan-1-yl)-3,5-difluorophenyl)oxazolidin-2-one] | 16 (≈ 45 µM) | 16 (≈ 45 µM) | 16 (≈ 45 µM) | 16 (≈ 45 µM) | 16 (≈ 45 µM) | 16 (≈ 45 µM) | 16 (≈ 45 µM) | 16 (≈ 45 µM) | 16 (≈ 45 µM) | 16 (≈ 45 µM) | 16 (≈ 45 µM) | 16 (≈ 45 µM) | 16 (≈ 45 µM) | 16 (≈ 45 µM) | 16 (≈ 45 µM) | 16 (≈ 45 µM) | 8 (≈ 22.5 µM) | > 32 | 16 (≈ 45 µM) | 16 (≈ 45 µM) | MIC [21]: 16 µg/mL (≈ 45 µM); MIC [22]: 16 µg/mL (≈ 45 µM); MIC [23]: 32 µg/mL (≈ 90 µM); MIC [24]: 32 µg/mL (≈ 90 µM); MIC [25]: 32 µg/mL (≈ 90 µM); MIC [26]: 16 µg/mL (≈ 45 µM); MIC [27]: 16 µg/mL (≈ 45 µM); MIC [28]: 8 µg/mL (≈ 22.5 µM); MIC [29]: 16 µg/mL (≈ 45 µM); MIC [30]: 16 µg/mL (≈ 45 µM); MIC [31]: 8 µg/mL (≈ 22.5 µM); MIC [32]: 25 µg/mL (≈ 70.3 µM)
5 | C[Si]1(C)CCN(c2c(F)cc(N3C[C@H](Cn4ccnn4)OC3=O)cc2F)CC1 [NDS-10058, (R)-5-((1H-1,2,3-triazol-1-yl)methyl)-3-(4-(4,4-dimethyl-1,4-azasilinan-1-yl)-3,5-difluorophenyl)oxazolidin-2-one] | > 32 | > 32 | > 32 | > 32 | 32 (≈ 78.5 µM) | 32 (≈ 78.5 µM) | > 32 | > 32 | > 32 | > 32 | 32 (≈ 78.5 µM) | 32 (≈ 78.5 µM) | 32 (≈ 78.5 µM) | 32 (≈ 78.5 µM) | 32 (≈ 78.5 µM) | > 32 | > 32 | 16 (≈ 39.3 µM) | 32 (≈ 78.5 µM) | > 32 | MIC [21]: > 32 µg/mL; MIC [22]: > 32 µg/mL; MIC [23]: 32 µg/mL (≈ 78.5 µM); MIC [24]: > 32 µg/mL; MIC [25]: 16 µg/mL (≈ 39.3 µM); MIC [26]: 32 µg/mL (≈ 78.5 µM); MIC [27]: 32 µg/mL (≈ 78.5 µM); MIC [28]: 16 µg/mL (≈ 39.3 µM); MIC [29]: 4 µg/mL (≈ 9.82 µM); MIC [30]: 32 µg/mL (≈ 78.5 µM); MIC [31]: > 32 µg/mL; anti-tubercular activity (in words) [32]: good anti-tubercular activity; MIC [32]: 12.5 µg/mL (≈ 30.7 µM)
